Counter-ions that a name gives are not always drawn.

The record followed here is patent US9493396B2, “Substituted naphthalene compounds as calcium sensing receptor modulators” (LUPIN ATLANTIS HOLDINGS SA, priority 2013, dated 2016).

The assay concerns the target T1, Calcium sensing receptor (hCaSR) (Homo sapiens, UniProt P41180).
T1 construct: expressed in transfected cells; host or cells: HEK293 (stably transfected)
T1 sequence (P41180 20-1078): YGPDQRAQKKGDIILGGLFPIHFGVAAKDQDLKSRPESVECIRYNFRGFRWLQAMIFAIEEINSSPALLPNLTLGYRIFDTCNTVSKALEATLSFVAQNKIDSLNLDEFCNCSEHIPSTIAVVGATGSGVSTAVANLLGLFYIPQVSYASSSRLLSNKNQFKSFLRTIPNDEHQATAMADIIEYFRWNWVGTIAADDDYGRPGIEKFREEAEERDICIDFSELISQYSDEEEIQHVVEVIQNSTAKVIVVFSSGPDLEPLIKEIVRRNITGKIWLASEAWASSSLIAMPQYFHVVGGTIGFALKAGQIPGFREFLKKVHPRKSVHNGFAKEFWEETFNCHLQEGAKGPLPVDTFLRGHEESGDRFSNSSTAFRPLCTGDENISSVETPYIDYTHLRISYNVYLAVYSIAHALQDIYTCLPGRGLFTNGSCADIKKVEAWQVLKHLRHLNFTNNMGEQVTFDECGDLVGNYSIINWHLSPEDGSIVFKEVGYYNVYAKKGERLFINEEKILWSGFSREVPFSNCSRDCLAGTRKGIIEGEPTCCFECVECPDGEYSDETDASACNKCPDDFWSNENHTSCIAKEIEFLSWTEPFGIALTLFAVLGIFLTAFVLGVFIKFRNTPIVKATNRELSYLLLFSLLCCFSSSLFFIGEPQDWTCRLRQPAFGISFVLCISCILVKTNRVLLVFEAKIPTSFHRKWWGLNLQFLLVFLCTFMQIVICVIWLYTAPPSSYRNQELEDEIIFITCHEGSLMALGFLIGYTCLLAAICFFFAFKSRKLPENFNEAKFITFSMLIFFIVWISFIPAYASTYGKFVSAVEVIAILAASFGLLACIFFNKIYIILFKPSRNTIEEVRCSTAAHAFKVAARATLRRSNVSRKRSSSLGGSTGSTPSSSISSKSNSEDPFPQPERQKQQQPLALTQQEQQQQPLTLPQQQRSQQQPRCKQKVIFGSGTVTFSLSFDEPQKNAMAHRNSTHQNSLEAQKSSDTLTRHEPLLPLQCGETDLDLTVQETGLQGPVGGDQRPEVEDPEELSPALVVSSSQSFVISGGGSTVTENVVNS
In words: In-vitro assay of calcimimetics through modulation of calcium sensing receptor (intracellular calcium increase, FLIPR). The class given is cell-based. The settings on record: stably transfected HEK293 cells expressing hCaSR; Fluo4NW dye; 0.3 mM CaCl2; 8-point assay; read-out: EC50 in range. As for the experimental part: In-Vitro Assay Method of Calcimimetics Through Modulation of Calcium Sensing Receptor (CaSR): The ability of the compounds to modulate Calcium sensing receptor is determined by measuring an increase in intracellular calcium [Ca^2+]i. Stably transfected HEK293 cells expressing hCaSR_pTriEx-3 hygro vector are developed. Cells are grown overnight on a 96-well plate to 80% confluency in Ham's F12 containing 20% FBS at 37° C., 5% CO2. Subsequently, cells are washed extensively with 20 mM HEPES buffer containing 126 mM […], 1 mM MgCl2 and 4 mM KCl to remove serum components that might interfere with the assay. Cells are loaded with calcium sensing Fluo4NW dye in HEPES base buffer containing 0.1% BSA and 1 mg/ml glucose for 30 minutes to measure changes in intracellular calcium. The activities of the compounds are measured in FLIPR using 0.3 mM CaCl2 in 20 mM HEPES base buffer. The effectiveness of the compound to modulate receptor activity is determined by calculating the EC50 responses for that compound in an 8-point assay and plotted using GraphPad Prism 5.
(In general: Calcium flux is commonly read through the fluorescence of an indicator in the cells.)
A word on the EC50: it is the concentration at which the effect is half-maximal. Consider `CC(N[C@H](C)c1cccc(Cl)c1)c1cc(-c2ccc(C(F)(F)F)c(CCC(=O)O)c2)c2ccccc2c1` (stereo partly drawn) [Example 146, 3-(5-(3-(1-(((R)-1-(3-Chlorophenyl)ethyl)amino)ethyl)naphthalen-1-yl)-2-(trifluoromethyl)phenyl)propanoic acid hydrochloride], for which the concentration giving a half-maximal response (EC50) was 50 to 400 nM.

As to `COc1cccc([C@@H](C)NC(C)c2cc(-c3cc(F)cc(CCC(=O)O)c3)c3cc(F)ccc3c2)c1` (stereo partly drawn) [Example 147, 3-(3-Fluoro-5-(7-fluoro-3-(1-(((R)-1-(3-methoxyphenyl)ethyl)amino)ethyl)naphthalen-1-yl)phenyl)propanoic acid hydrochloride], the EC50 lay within 50 to 400 nM. Take `Cc1ccc(-c2cc(CN[C@H](C)c3cccc4ccccc34)cc3ccccc23)cc1C(=O)O` [Example 89, (R)-2-Methyl-5-(3-(((1-(naphthalen-1-yl)ethyl)amino)methyl)naphthalen-1-yl) benzoic acid]: the EC50 fell in the range of 20 to 50 nM. To `COc1cccc([C@@H](C)NCCCc2cc(-c3ccc(C(F)(F)F)cc3)c3ccccc3c2)c1` [Example 5, (R)-N-(1-(3-Methoxyphenyl)ethyl)-3-(4-(4-(trifluoromethyl)phenyl)naphthalen-2-yl)propan-1-amine hydrochloride] belongs 20 to 50 nM; to `COc1cccc([C@@H](C)NC(C)c2cc(-c3ccc(CCC(=O)O)c(F)c3)c3ccccc3c2)c1` (stereo partly drawn) [Example 136, 3-(2-Fluoro-4-(3-(1-(((R)-1-(3-methoxyphenyl)ethyl)amino)ethyl)naphthalen-1-yl)phenyl) propanoic acid hydrochloride], 20 to 50 nM. Then `CC(N[C@H](C)c1cccc(Cl)c1)c1cc(-c2ccc(OC(F)F)cc2)c2ccccc2c1` (stereo partly drawn) [Example 22, (1R)-1-(3-Chlorophenyl)-N-1-(4-(4-(difluoromethoxy)phenyl)naphthalen-2-yl)ethyl)ethanamine hydrochloride], with less than 20 nM; and `COc1cccc([C@@H](C)NC(C)c2cc(-c3ccc(C(F)(F)F)cc3)c3ccc(F)cc3c2)c1` (stereo partly drawn) [Example 162, (1R)-1-(3-methoxyphenyl)-N-(1-(7-fluoro-4-(4-(trifluoromethyl)phenyl)naphthalen-2-yl)ethyl)ethanamine hydrochloride], with less than 20 nM. To `CCCOc1cccc([C@@H](C)NCc2cc(-c3ccc(C)c(C(=O)O)c3)c3ccccc3c2)c1` [Example 92, (R)-2-Methyl-5-(3-(((1-(3-propoxyphenyl)ethyl)amino)methyl)naphthalen-1-yl)benzoic acid hydrochloride] belongs 50 to 400 nM. Regarding `CC(N[C@H](C)c1cccc(Cl)c1)c1cc(-c2ccc(F)c(C(=O)O)c2)c2ccccc2c1` (stereo partly drawn) [Example 127, 5-(3-(1-(((R)-1-(3-Chlorophenyl)ethyl)amino)ethyl)naphthalen-1-yl)-2-fluorobenzoic acid hydrochloride], the EC50 was in the range of 50 to 400 nM. Then `CC(N[C@H](C)c1cccc(Cl)c1)c1cc(-c2ccc(OC(F)(F)F)cc2)c2ccccc2c1` (stereo partly drawn) [Example 20, (1R)-1-(3-Chlorophenyl)-N-(1-(4-(4-(trifluoromethoxy)phenyl)naphthalen-2-yl)ethyl)ethanamine hydrochloride], with less than 20 nM; and `COc1cccc([C@@H](C)NC(C)c2cc(-c3ccc(C(=O)O)c(C)c3)c3ccccc3c2)c1` (stereo partly drawn) [Example 130, 4-(3-(1-(((R)-1-(3-Methoxyphenyl)ethyl)amino)ethyl)naphthalen-1-yl)-2-methylbenzoic acid hydrochloride], with 50 to 400 nM; and `COc1cccc([C@@H](C)NC(C)c2cc(-c3ccc(C(F)(F)F)c(CCC(=O)O)c3)c3ccccc3c2)c1` (stereo partly drawn) [Example 145, 3-(5-(3-(1-(((R)-1-(3-Methoxyphenyl)ethyl)amino)ethyl)naphthalen-1-yl)-2-(trifluoromethyl)phenyl)propanoic acid hydrochloride], with 50 to 400 nM.

In the case of `Cc1ccc(-c2cc(CN[C@H](C)c3cccc(OCC(F)F)c3)cc3ccccc23)cc1C(=O)O` [Example 95, (R)-5-(3-(((1-(3-(2,2-Difluoroethoxy)phenyl)ethyl)amino)methyl)naphthalen-1-yl)-2-methylbenzoic acid hydrochloride], the EC50 fell in the range of 50 to 400 nM.

Take `CC(N[C@H](C)c1cccc(Cl)c1)c1cc(-c2ccc(F)c(CCC(=O)O)c2)c2ccccc2c1` (stereo partly drawn) [Example 144, 3-(5-(3-(1-(((R)-1-(3-Chlorophenyl)ethyl)amino)ethyl)naphthalen-1-yl)-2-fluorophenyl)propanoic acid hydrochloride]: the concentration giving a half-maximal response (EC50) was in the range of 20 to 50 nM. Then `CCOc1cccc([C@@H](C)NC(CC)c2cc(-c3ccc(F)c(CCC(=O)O)c3)c3ccccc3c2)c1` (stereo partly drawn) [Example 141, 3-(5-(3-(1-(((R)-1-(3-Ethoxyphenyl)ethyl)amino)propyl)naphthalen-1-yl)-2-fluorophenyl) propanoic acid hydrochloride], with 20 to 50 nM. Then `CCOc1cccc([C@@H](C)NC(C)c2cc(-c3cc(F)cc(CCC(=O)O)c3)c3ccccc3c2)c1` (stereo partly drawn) [Example 158, 3-(3-(3-(1-(((R)-1-(3-Ethoxyphenyl)ethyl)amino)ethyl)naphthalen-1-yl)-5-fluorophenyl) propanoic acid hydrochloride], with less than 20 nM; and `COc1cc([C@@H](C)NCc2cc(-c3ccc(C(=O)O)cc3)c3ccccc3c2)ccc1F` [Example 107, (R)-4-(3-(((1-(4-Fluoro-3-methoxyphenyl)ethyl)amino)methyl)naphthalen-1-yl)benzoic acid hydrochloride], with 20 to 50 nM; and `COc1cccc([C@@H](C)NC(C)c2cc(-c3cc(F)cc(N4CCOCC4)c3)c3ccccc3c2)c1` (stereo partly drawn) [Example 161, 1-(4-(3-Fluoro-5-morpholinophenyl)naphthalen-2-yl)-N-((R)-1-(3-methoxyphenyl)ethyl)ethanamine hydrochloride], with less than 20 nM. Consider `COc1cccc([C@@H](C)NCc2cc(-c3ccc(F)c(CCC(=O)O)c3)c3ccccc3c2)c1` [Example 110, hydrochloride], for which the EC50 was less than 20 nM. Then `COc1cccc([C@@H](C)NC(C)c2cc(-c3ccc(F)cc3)c3ccccc3c2)c1` (mixture of isomers) [Example 15, 1-(4-(4-Fluorophenyl)naphthalen-2-yl)-N-((R)-1-(3-methoxyphenyl)ethyl)ethanamine hydrochloride], with less than 20 nM. Turning to `COc1cccc([C@@H](C)NCc2cc(-c3ccc(C(C)C)c(C(=O)O)c3)c3ccccc3c2)c1` [Example 105, (R)-2-Isopropyl-5-(3-(((1-(3-methoxyphenyl)ethyl)amino)methyl)naphthalen-1-yl)benzoic acid hydrochloride], the EC50 was in the range of 50 to 400 nM. With `COc1cc(F)cc(C(C)NC(C)c2cc(-c3ccc(C(F)(F)F)cc3)c3ccccc3c2)c1` (single isomer, unassigned) [Example 163b, 1-(3-Fluoro-5-methoxyphenyl)-N-(1-(4-(4-(trifluoromethyl)phenyl)naphthalen-2-yl)ethyl)ethanamine hydrochloride], the EC50 was in the range of 20 to 50 nM. For `COc1cccc([C@@H](C)NCc2cc(-c3cccc(C(=O)O)c3)c3ccccc3c2)c1` [Example 108, (R)-3-(3-(((1-(3-Methoxyphenyl)ethyl)amino)methyl)naphthalen-1-yl)benzoic acid hydrochloride], the concentration for a half-maximal effect (EC50) is less than 20 nM. To `Cc1ccc(-c2cc(C(C)N[C@H](C)c3cccc(Cl)c3)cc3ccccc23)cc1C(=O)O` (stereo partly drawn) [Example 117, 5-(3-(1-(((R)-1-(3-Chlorophenyl)ethyl)amino)ethyl)naphthalen-1-yl)-2-methylbenzoic acid hydrochloride] belongs 50 to 400 nM.
